Results: patent publication US20240299481A1, “STEPHANIA CEPHARANTHA-DERIVED ALKALOID-CONTAINING PREPARATION” (JAPAN AS REPRESENTED BY DIRECTOR-GENERAL OF NATIONAL …, priority 2021, published 2024)

The molecules below were run on novel coronavirus mutant strain (alpha mutant strain).
Type: cell-based, SARS-COV-2
With COc1cc2c3cc1Oc1c(OC)c(OC)cc4c1[C@@H](Cc1ccc(O)c(c1)Oc1ccc(cc1)C[C@@H]3N(C)CC2)N(C)CC4 [Berbamine] the “antiviral effect (number of viral RNA with increasing addition concentration)” value was “showed antiviral effects” and the “antiviral effect compared with the preparation / other alkaloids” value was “weak antiviral effect”. COc1ccc2cc1Oc1ccc(cc1)C[C@H]1c3c(cc4c(c3Oc3cc5c(cc3OC)CCN(C)[C@@H]5C2)OCO4)CCN1C [Cepharanthine] was tested, and the “antiviral effect (number of viral RNA with increasing addition concentration)” value was “showed antiviral effects” and the “antiviral effect compared with the preparation / other alkaloids” value was “comparable to the Stephania cepharantha-derived alkaloid-containing preparation”. COc1cc2c3c(c1OC)Oc1ccc(cc1)C[C@@H]1c4c(cc(OC)c(OC)c4Oc4ccc(cc4)C[C@H]3N(C)CC2)CCN1C [Cycleanine] was tested, and the “antiviral effect (number of viral RNA with increasing addition concentration)” value was “showed antiviral effects” and the “antiviral effect compared with the preparation / other alkaloids” value was “comparable to the Stephania cepharantha-derived alkaloid-containing preparation”. In the case of COc1ccc2cc1Oc1ccc(cc1)C[C@H]1c3cc(c(OC)cc3CCN1C)Oc1c(OC)c(OC)cc3c1[C@@H](C2)N(C)CC3 [Isotetrandrine], the “antiviral effect (number of viral RNA with increasing addition concentration)” value is reported as “showed antiviral effects” and the “antiviral effect compared with the preparation / other alkaloids” value is reported as “comparable to the Stephania cepharantha-derived alkaloid-containing preparation”.
